# Experimental data taken from ChEMBL document CHEMBL5584236, “Development of novel bisphenol derivatives with a membrane-targeting mechanism as potent gram-positive antibacterial agents” (Eur J Med Chem, 2024).
# The source made the active and inactive calls. No cut-off for these calls is given here.
# How the values were obtained:
# [1] = Cytotoxicity against HEK293 cells assessed as viable cells at 3.125 ug/ml incubated for 24 hrs by CCK-8 assay relative to control; type: toxicity, cell-based; details: human, at 3.125 µg/mL, read-out: Activity
# [2] = system: Acinetobacter baumannii; assay: Synergistic […] activity against Acinetobacter baumannii ATCC17978 assessed as fractional inhibitory concentration index incubated for 22 to 24 hrs in presence of tobramycin by CLSI based broth microdilution method; type: functional; details: time 22-24 hrs
# [3] = system: Staphylococcus aureus; assay: Antibacterial activity against methicillin-resistant Staphylococcus aureus N315 assessed as reduction in bacterial growth incubated for 22 to 24 hrs in presence of FeCl3 by CLSI based broth microdilution method; type: functional; details: time 22-24 hrs
# [4] = Cytotoxicity against mouse NCTC clone 929 cells assessed as viable cells at 100 ug/ml incubated for 24 hrs by CCK-8 assay relative to control; type: toxicity, cell-based; details: NCTC clone 929 (L929) cells, at 100 µg/mL, read-out: Activity
# [5] = Cytotoxicity against mouse NCTC clone 929 cells assessed as viable cells at 50 ug/ml incubated for 24 hrs by CCK-8 assay relative to control; type: toxicity, cell-based; details: NCTC clone 929 (L929) cells, at 50 µg/mL, read-out: Activity
# [6] = system: Staphylococcus aureus; assay: Synergistic […] activity against methicillin-resistant Staphylococcus aureus NCTC10442 assessed as fractional inhibitory concentration index incubated for 22 to 24 hrs in presence of vancomycin by CLSI based broth microdilution method; type: functional; details: time 22-24 hrs
# [7] = system: Staphylococcus aureus; assay: Synergistic […] activity against Staphylococcus aureus ATCC29213 assessed as fractional inhibitory concentration index incubated for 22 to 24 hrs in presence of teicoplanin by CLSI based broth microdilution method; type: functional; details: time 22-24 hrs
# [8] = system: Staphylococcus epidermidis; assay: Antibacterial activity against Staphylococcus epidermidis ATCC12228 assessed as reduction in microbial growth incubated for 22 to 24 hrs by CLSI based broth microdilution method; type: functional; details: time 22-24 hrs
# [9] = system: Staphylococcus aureus; assay: Bactericidal activity against Staphylococcus aureus ATCC29213 assessed as log reduction in bacterial load at 8 times of MIC measured with in 4 hrs by time kill assay; type: functional
# [10] = system: Staphylococcus aureus; assay: Antibacterial activity against methicillin-resistant Staphylococcus aureus NCTC10442 assessed as reduction in bacterial growth incubated for 22 to 24 hrs in presence of CaCl2 by CLSI based broth microdilution method; type: functional; details: time 22-24 hrs
# [11] = system: Staphylococcus aureus; assay: Antibacterial activity against methicillin-resistant Staphylococcus aureus N315 assessed as reduction in bacterial growth incubated for 22 to 24 hrs in presence of MgCl2 by CLSI based broth microdilution method; type: functional; details: time 22-24 hrs
# [12] = system: Staphylococcus aureus; assay: Antibacterial activity against methicillin-resistant Staphylococcus aureus N315 assessed as reduction in bacterial growth incubated for 22 to 24 hrs in presence of FeCl2 by CLSI based broth microdilution method; type: functional; details: time 22-24 hrs
# [13] = Cytotoxicity against mouse NCTC clone 929 cells assessed as viable cells at 25 ug/ml incubated for 24 hrs by CCK-8 assay relative to control; type: toxicity, cell-based; details: NCTC clone 929 (L929) cells, at 25 µg/mL, read-out: Activity
# [14] = system: Staphylococcus aureus; assay: Antibacterial activity against methicillin-resistant Staphylococcus aureus N315 assessed as reduction in bacterial growth incubated for 22 to 24 hrs in presence of NaCl by CLSI based broth microdilution method; type: functional; details: time 22-24 hrs
# [15] = system: Staphylococcus aureus; assay: Antibacterial activity against Staphylococcus aureus ATCC29213 assessed as reduction in microbial growth incubated for 22 to 24 hrs by CLSI based broth microdilution method; type: functional; details: time 22-24 hrs
# [16] = system: Acinetobacter baumannii; assay: Antibacterial activity against Acinetobacter baumannii R28889 assessed as reduction in microbial growth incubated for 22 to 24 hrs by CLSI based broth microdilution method; type: functional; details: time 22-24 hrs
# [17] = system: Staphylococcus aureus; assay: Antibacterial activity against Staphylococcus aureus ATCC29213 infected in C57BL6 mouse corneal infection model assessed as bacterial killing at 0.5 % administered topically on corneas for four times in 3 days by MHA plate counting method relative to control; type: functional; details: route top, time 3 day
# [18] = system: Escherichia coli; assay: Induction of outer membrane permeabilization in Escherichia coli ATCC25922 assessed as increase in fluorescence intensity measured upto 1 hr by NPN uptake assay; type: functional, organism-based
# [19] = system: Escherichia coli; assay: Antibacterial activity against Escherichia coli ATCC25922 assessed as reduction in microbial growth incubated for 22 to 24 hrs by CLSI based broth microdilution method; type: functional; details: time 22-24 hrs
# [20] = system: Klebsiella pneumoniae; assay: Antibacterial activity against Klebsiella pneumoniae ATCC10031 assessed as reduction in microbial growth incubated for 22 to 24 hrs by CLSI based broth microdilution method; type: functional; details: time 22-24 hrs
# [21] = system: Staphylococcus aureus; assay: Disruption of cell membrane integrity in methicillin-resistant Staphylococcus aureus NCTC10442 assessed as increase in red fluorescence at 8 time of MIC measured after 15 mins by SYTO 9/PI staining based laser confocal microscopic analysis; type: functional, organism-based
# [22] = Cytotoxicity against HEK293 cells assessed as viable cells at 100 ug/ml incubated for 24 hrs by CCK-8 assay relative to control; type: toxicity, cell-based; details: human, at 100 µg/mL, read-out: Activity
# [23] = system: Staphylococcus aureus; assay: Bactericidal activity against methicillin-resistant Staphylococcus aureus NCTC10442 assessed as cell killing at 4 times of MIC measured with in 2 hrs by time kill assay relative to control; type: functional
# [24] = system: Staphylococcus aureus; assay: Antibacterial activity against Staphylococcus aureus ATCC29213 assessed as reduction in bacterial growth incubated for 22 to 24 hrs in presence of ZnSO4.7H2O by CLSI based broth microdilution method; type: functional; details: time 22-24 hrs
# [25] = system: Staphylococcus aureus; assay: Antibacterial activity against methicillin-resistant Staphylococcus aureus NCTC10442 assessed as reduction in bacterial growth incubated for 22 to 24 hrs in presence of NaCl by CLSI based broth microdilution method; type: functional; details: time 22-24 hrs
# [26] = system: Staphylococcus aureus; assay: Antibacterial activity against methicillin-resistant Staphylococcus aureus NCTC10442 assessed as reduction in bacterial growth incubated for 22 to 24 hrs in presence of FeCl3 by CLSI based broth microdilution method; type: functional; details: time 22-24 hrs
# [27] = Cytotoxicity against mouse NCTC clone 929 cells assessed as viable cells at 12.5 ug/ml incubated for 24 hrs by CCK-8 assay relative to control; type: toxicity, cell-based; details: NCTC clone 929 (L929) cells, at 12.5 µg/mL, read-out: Activity
# [28] = Cytotoxicity against mouse NCTC clone 929 cells assessed as viable cells at 3.125 ug/ml incubated for 24 hrs by CCK-8 assay relative to control; type: toxicity, cell-based; details: NCTC clone 929 (L929) cells, at 3.125 µg/mL, read-out: Activity
# [29] = system: Staphylococcus aureus; assay: Antibacterial activity against methicillin-resistant Staphylococcus aureus NCTC10442 assessed as reduction in microbial growth incubated for 22 to 24 hrs by CLSI based broth microdilution method; type: functional; details: time 22-24 hrs
# [30] = system: Staphylococcus aureus; assay: Antibacterial activity against methicillin-resistant Staphylococcus aureus N315 assessed as reduction in bacterial growth incubated for 22 to 24 hrs in presence of KCl by CLSI based broth microdilution method; type: functional; details: time 22-24 hrs
# [31] = Cytotoxicity against HEK293 cells assessed as viable cells at 25 ug/ml incubated for 24 hrs by CCK-8 assay relative to control; type: toxicity, cell-based; details: human, at 25 µg/mL, read-out: Activity
# [32] = system: Staphylococcus epidermidis; assay: Antibacterial activity against Staphylococcus epidermidis CMCC26069 assessed as reduction in microbial growth incubated for 22 to 24 hrs by CLSI based broth microdilution method; type: functional; details: time 22-24 hrs
smiles,measurement,setting,value
COC(=O)[C@H](CCCNC(=N)N)NC(=O)[C@H](CCCNC(=N)N)NC(=O)COc1ccc(S(=O)(=O)c2ccc(OC/C=C(/C)CCC=C(C)C)cc2)cc1,"viability at 24 h, 3.125 ug/ml",[1],102%
same,fractional inhibitory concentration index (FICI),[2],0.56
same,MIC,[3],1.56 mg/L
same,"viability at 24 h, 100 ug/ml",[4],74%
same,"viability at 24 h, 50 ug/ml",[5],84.7%
same,fractional inhibitory concentration index (FICI),[6],0.5
same,fractional inhibitory concentration index (FICI),[7],0.31
same,MIC,[8],1.56 mg/L
same,log(activity),[9],3
same,MIC,[10],3.12 mg/L
same,MIC,[11],1.56 mg/L
same,MIC,[12],1.56 mg/L
same,"viability at 24 h, 25 ug/ml",[13],87.6%
same,MIC,[14],1.56 mg/L
same,MIC,[15],1.56 mg/L
same,MIC,[16],6.25 mg/L
same,Activity,[17],99.99%
same,Activity,[18],Dose-Dependent Effect
same,MIC,[19],6.25 mg/L
same,MIC,[20],6.25 mg/L
same,Activity,[21],Active
same,"viability at 24 h, 100 ug/ml",[22],79.4%
same,Activity,[23],99.99%
same,MIC,[24],1.56 mg/L
same,MIC,[25],1.56 mg/L
same,MIC,[26],1.56 mg/L
same,"viability at 24 h, 12.5 ug/ml",[27],88.9%
same,"viability at 24 h, 3.125 ug/ml",[28],92.6%
same,MIC,[29],0.78 mg/L
same,MIC,[30],1.56 mg/L
same,"viability at 24 h, 25 ug/ml",[31],93.8%
same,MIC,[32],1.56 mg/L
